Results published in ChEMBL document CHEMBL1122946, “Folate antagonists. 21. Synthesis and antimalarial properties of 2,4-diamino-6-(benzylamino)pyrido[3,2-d]pyrimidines” (1985).

Columns and labels:
Mus musculus [1] = assay: Mean survival time against trophozoite induced Plasmodium berghei in mice minus control was evaluated at a dose 5 mg/kg.; assay type: functional
Mus musculus [2] = assay: Mean survival time against trophozoite induced Plasmodium berghei in mice minus control was evaluated at a dose 640 mg/kg; 15 toxic death occurred out of 15 animals on days 2-5 after injection; assay type: functional, organism-based; parameters: dose 640 mg/kg
Mus musculus [3] = assay: Mean survival time against trophozoite induced Plasmodium berghei in mice minus control was evaluated at a dose 80 mg/kg; 5 survived out of 5 animals at 60 days postinjection.; assay type: functional, organism-based; parameters: dose 80 mg/kg
Mus musculus [4] = assay: Mean survival time against trophozoite induced Plasmodium berghei in mice minus control was evaluated at a dose 10 mg/kg.; assay type: functional
Mus musculus [5] = assay: Mean survival time against trophozoite induced Plasmodium berghei in mice minus control was evaluated at a dose 320 mg/kg; 10 toxic death occurred out of 10 animals on days 2-5 after injection; assay type: functional, organism-based; parameters: dose 320 mg/kg
Mus musculus [6] = assay: Mean survival time against trophozoite induced Plasmodium berghei in mice minus control was evaluated at a dose 40 mg/kg; assay type: functional
Mus musculus [7] = assay: Mean survival time against trophozoite induced Plasmodium berghei in mice minus control was evaluated at a dose 1.25 mg/kg.; assay type: functional
Mus musculus [8] = assay: Mean survival time against trophozoite induced Plasmodium berghei in mice minus control was evaluated at a dose 160 mg/kg; 14 toxic death occurred out of 20 animals on days 2-5 after injection; assay type: functional, organism-based; parameters: dose 160 mg/kg
Mus musculus [9] = assay: Mean survival time against trophozoite induced Plasmodium berghei in mice minus control was evaluated at a dose 2.5 mg/kg.; assay type: functional
Mus musculus [10] = assay: Mean survival time against trophozoite induced Plasmodium berghei in mice minus control was evaluated at a dose 20 mg/kg; assay type: functional
Mus musculus [11] = assay: Mean survival time against trophozoite induced Plasmodium berghei in mice minus control was evaluated at a dose 640 mg/kg; 5 toxic death occurred out of 5 animals on days 2-5 after injection; assay type: functional, organism-based; parameters: dose 640 mg/kg
Mus musculus [12] = assay: Mean survival time against trophozoite induced Plasmodium berghei in mice minus control was evaluated at a dose 80 mg/kg; 4 toxic death occurred out of 10 animals on days 2-5 after injection.; assay type: functional, organism-based; parameters: dose 80 mg/kg
Mus musculus [13] = assay: Mean survival time against trophozoite induced Plasmodium berghei in mice minus control was evaluated at a dose 20 mg/kg;3 survived out of 15 animals at 60 days postinjection; assay type: functional, organism-based; parameters: dose 20 mg/kg
Mus musculus [14] = assay: Mean survival time against trophozoite induced Plasmodium berghei in mice minus control was evaluated at a dose 10 mg/kg; assay type: functional
Mus musculus [15] = assay: Mean survival time against trophozoite induced Plasmodium berghei in mice minus control was evaluated at a dose 320 mg/kg; 8 toxic death occurred out f 10 animals on days 2-5 after injection; assay type: functional, organism-based; parameters: dose 320 mg/kg
Mus musculus [16] = assay: Mean survival time against trophozoite induced Plasmodium berghei in mice minus control was evaluated at a dose 1.25 mg/kg; assay type: functional
Mus musculus [17] = assay: Mean survival time against trophozoite induced Plasmodium berghei in mice minus control was evaluated at a dose 160 mg/kg; 8 toxic death occurred out of 10 animals on days 2-5 after injection; assay type: functional, organism-based; parameters: dose 160 mg/kg
Mus musculus [18] = assay: Mean survival time against trophozoite induced Plasmodium berghei in mice minus control was evaluated at a dose 40 mg/kg; 11 survived out of 15 animals at 60 days postinjection; assay type: functional, organism-based; parameters: dose 40 mg/kg

| SMILES | Delta MST (Mus musculus [1]) [days] | Delta MST (Mus musculus [2]) | Delta MST (Mus musculus [3]) | Delta MST (Mus musculus [4]) [days] | Delta MST (Mus musculus [5]) | Delta MST (Mus musculus [6]) [days] | Delta MST (Mus musculus [7]) [days] | Delta MST (Mus musculus [8]) | Delta MST (Mus musculus [9]) [days] | Delta MST (Mus musculus [10]) [days] | Delta MST (Mus musculus [11]) | Delta MST (Mus musculus [12]) | Delta MST (Mus musculus [13]) | Delta MST (Mus musculus [14]) [days] | Delta MST (Mus musculus [15]) | Delta MST (Mus musculus [16]) [days] | Delta MST (Mus musculus [17]) | Delta MST (Mus musculus [18]) |
| --- | --- | --- | --- | --- | --- | --- | --- | --- | --- | --- | --- | --- | --- | --- | --- | --- | --- | --- |
| CCCN(Cc1ccc(Cl)cc1)c1ccc2nc(N)nc(N)c2n1 | 8.9 | Toxic Deaths 15/15 | Survivals 5/5 | 10.3 | Toxic Deaths 10/10 | 21.3 | 6.9 | Toxic Deaths 14/20 | 8.1 | 18 |  |  |  |  |  |  |  |  |
| CC#N.CC(C)N(Cc1ccc(Cl)cc1)c1ccc2nc(N)nc(N)c2n1 | 8.5 |  |  |  |  |  |  |  | 6.5 |  | Toxic Deaths 5/5 | Toxic Deaths 4/10 | Survivals 3/15 | 11.5 | Toxic Deaths 8/10 | 3.5 | Toxic Deaths 8/10 | Survivals 11/15 |
